Experimental data from patent US8163287B2, “Combination therapy of her expressing tumors” (Genentech, Inc., priority 2005, dated 2012).

Legend:
[1] = test system: human lung, breast and ovarian cancer xenograft models; experiment: Antitumor activity in human cancer xenograft models (26 tumor xenografts); assay type: in vivo, NMRI nu/nu nude mice; conditions: for tumors responsive to both erlotinib and pertuzumab: of 26 tumors (12%); for tumors that did not respond to treatment with either pertuzumab or erlotinib: of the 26 tumors tested (42%), pertuzumab i.p. 100 mg/kg, erlotinib orally 25 mg/kg
Excerpt: (§1) The tumor models were established by implanting tumor tissues obtained from human patients into randomized NMRI nu/nu nude mice (Oncotest GmbH, Freiburg, Germany) and tumors were propagated until stable tumor growth behavior was observed. After removal of the tumor from the donor mice, the tumor was cut into fragments (2 mm diameter) and placed in RPMI 1640 culture medium until subcutaneous implantation in the mice. The tumor fragments (two per mouse) were transplanted by tweezers. The mice were monitored daily.
(§2) The substance was diluted with a buffer containing 10 mM L-histidine, 240 mM sucrose, 0.02% polysorbate 20 pH 6 (HCl). The solutions were prepared fresh daily. Erlotinib was delivered as a ready-to-use formulation dissolved in 6% captisol.
Erlotinib was administered orally (25 mg/kg). The control mice received the vehicle by the same procedure and on the same schedule as the test compound.
(§3) The antitumor effect was evaluated following maximum tumor inhibition versus the control group.
Tumor volumes were determined by two-dimensional measurement with a caliper at the day of randomization (day 0) and then 2-3 times weekly. The tumor volume was calculated using the following formula: Tumor Volume=(a×b^2)×0.5,
where a and b represent two perpendicular tumor diameters, a=length (longer diameter), b=width (shorter diameter). All mice of a treatment group were sacrificed when the tumors reached mean diameters of approximately 16 mm.
Relative tumor volumes (RTV) were calculated for each individual tumor, by dividing the tumor volume on day X (Vx) by the tumor volume on day 0 (V0) multiplied by 100%. The tumor volume of a treatment group was expressed as the median RTV of all mice of the group. Median RTV volumes were used for drawing growth curves and treatment evaluation.
Optimal tumor growth inhibition at a particular day within the experimental period was calculated from the median RTV values of the test versus control groups multiplied by 100% (T/C 100%).
Relative tumor volume (Tx/T0) was defined as the median relative tumor volume of the test group on day X divided by the medium relative tumor volume of the test group on day 0, multiplied by 100.
T/C % and Tx/T0 were used for activity rating of the levels of efficacy, which were defined as follows: […]

[2] = test system: lung adenocarcinoma designated LXFA 629; experiment: Antitumor activity in the LXFA 629 xenograft; assay type: in vivo, NMRI nu/nu nude mice; conditions: each agent alone; pertuzumab i.p. 100 mg/kg, erlotinib orally 25 mg/kg
Excerpt: as §1, §2
Erlotinib was administered orally (25 mg/kg). […]
as §3
Tumor volumes were determined by two-dimensional measurement with a caliper at the day of randomization (day 0) and then 2-3 times weekly. The tumor volume was calculated using the following formula: Tumor Volume=(a×b^2)×0.5, […]
Relative tumor volumes (RTV) were calculated for each individual tumor, by dividing the tumor volume on day X (Vx) by the tumor volume on day 0 (V0) multiplied by 100%. The tumor volume of a treatment group was expressed as the median RTV of all mice of the group. […]

[3] = test system: incurable, locally advanced, recurrent or metastatic solid tumors; conditions: cited from earlier work
[4] = cited from earlier work

Row | Compound | NSCLC tumors that responded to erlotinib but not to pertuzumab ([1]; NSCLC only, of 21 (23%)) [tumors] | NSCLC tumors with no response to pertuzumab or erlotinib monotherapy ([1]; NSCLC only, out of the 21 tumors tested (43%)) [tumors] | tumors responsive to both erlotinib and pertuzumab ([1]; monotherapy) [tumors] | tumors moderately responsive to erlotinib, but not pertuzumab ([1]; monotherapy, of 26 tumors (27%)) [tumors] | tumors that did not respond to treatment with either pertuzumab or erlotinib ([1]; monotherapy) [tumors] | activity rating (response to monotherapy) [2] | NSCLC tumors that responded to pertuzumab but not erlotinib ([1]; NSCLC only, of 21 (14%)) [tumors] | confirmed partial responses ([3]; Phase I, single agent) | tumor regression achieved ([3]; of 20 patients evaluable for response) [patients] | tolerability ([3]; patients, intravenously every 3 weeks) | pharmacokinetics (dose linearity) ([4]; doses of 2.0-15 mg/kg) | antibodies to pertuzumab ([4]; patients)
1 | C#Cc1cccc(Nc2ncnc3cc(OCCOC)c(OCCOC)cc23)c1 [erlotinib, N-(3-ethynylphenyl)-6,7-bis(2-methoxyethoxy)-4-quinazolinamine] | 5 | 9 | 3 | 7 | 11 | moderate response | – | – | – | – | – | –
2 | pertuzumab: antibody comprising the light and heavy chain amino acid sequences of SEQ ID NOS. 11 and 12; HER dimerization inhibitor | – | – | 3 | – | 11 | – | 3 | Two | 3 | generally well tolerated | linear | not detected
